Test results taken from article PMC12081876, “Identification of PTGR2 inhibitors as a new therapeutic strategy for diabetes and obesity” (EMBO Molecular Medicine, 2025).
Where “and” joins values, the source holds several entries; their conditions need not be identical. Identical values can stand only once.

How the values were obtained:
[1] = tested on: differentiated 3T3-L1 adipocytes; assay: Insulin-stimulated glucose uptake assay by (3H)2-deoxyglucose; format: cell-based, mouse; parameters: insulin-stimulated glucose uptake, Fig 1J replicates / Figure 5E raw value, insulin-stimulated glucose uptake (replicates): unit not given here
Experimental: The cell lines, which were tested for mycoplasma contamination and authenticated, were purchased from the Bioresource Collection and Research Center, Taiwan. All cells were cultured at 37 °C, 5% CO2 in a humidified incubator. HEK293T cells were maintained in DMEM (cat. no. SH30003.02, HyClone) supplemented with 10% fetal bovine serum (FBS) (cat. no. 04-001-1A, Biological Industries) and 1% antibiotic/antimycotic solution (cat. no. SV30079.01, HyClone). 3T3-L1 preadipocytes were maintained at ~70% confluence in DMEM with 10% calf serum (cat. no. 16170078, Gibco) and 1% antibiotic/antimycotic solution. For adipocyte differentiation, confluent 3T3-L1 cells (defined as day 0) were exposed to an induction medium containing 10% FBS, 1 μM dexamethasone (cat. no. D4902, Sigma-Aldrich), and 1 μg/ml insulin (Humulin R, Eli Lilly) in DMEM with or without 0.5 mM isobutyl-methylxanthine (cat. no. sc-201188A, Santa Cruz Biotechnology) as indicated. After two days, the medium was replaced with DMEM containing 10% FBS and 1 μg/ml insulin and was replenished every two days until assay.
Differentiated 3T3-L1 cells were starved with serum-free DMEM containing 0.2% BSA (cat. no. A9647, Sigma-Aldrich). Cells were rinsed twice with KRH buffer (137 mM NaCl, 4.7 mM KCl, 1.85 mM CaCl2, 1.3 mM MgSO4, 50 mM HEPES and 0.1% BSA, pH 7.4), and treated with or without […] insulin in the presence of 20 μM cytochalasin B (cat. no. 11328, Cayman Chemical), a GLUT inhibitor for measuring non-specific glucose uptake, for 30 min. Cells were then incubated with 0.5 μCi [^3H]-2-deoxy-D-Glucose (cat. no. NET328A001MC, PerkinElmer) and 0.1 μM 2-deoxy-D-Glucose (2DG) (cat. no. 14325, Cayman Chemical) for 5 min. Uptake of 2DG was terminated by rapidly removing medium and washing with ice-cold PBS three times. Cells were lysed with 0.1% SDS, and the radioactivity was measured using a liquid scintillation counter. Insulin-mediated glucose uptake was calculated by subtracting insulin-treated glucose uptake with basal glucose uptake.

[2] = tested on: HFHSD-fed obese C57BL6/J mice; assay: Intraperitoneal glucose tolerance test (ipGTT); format: in vivo, mouse; parameters: Figure 2H Average (glucose, ipGTT) / ipGTT / ipGTT glucose, Average / Blood glucose during glucose tolerance test (Figure 5L), Average: unit not given here; settings: 100 mg/kg/day
Experimental: (§1) Glucose tolerance was evaluated by the oral (OGTT) and intraperitoneal glucose tolerance test (ipGTT) after a 6-h fast. For the OGTT, glucose water (1 mg/g) was given by oral gavage, and tail blood glucose was measured with a glucometer (ACCU-CHEK Performa, Roche) at 0, 15, 30, 45, 60, 90, and 120 min. For the ipGTT, tail blood glucose was measured at 0, 15, 30, 45, 60, 90, and 120 min after intraperitoneal injection of glucose water (1 mg/g). For the insulin tolerance test (ITT), mice were fasted for 4 h and then injected intraperitoneally with 1 U/kg of insulin (Humulin R, Eli Lilly). Tail blood glucose was measured at 0, 15, 30, 45, 60, 90, 120, and 180 min.

[3] = tested on: HFHSD-fed obese C57BL6/J mice; assay: Insulin tolerance test (ITT); format: in vivo, mouse; parameters: Figure 2I Average (glucose, ITT) / ITT / ITT glucose, Average / Blood glucose during insulin tolerance test (Figure 5M), Average: unit not given here; settings: 100 mg/kg/day
Experimental: as §1

[4] = tested on: HFHSD-fed obese C57BL6/J mice; assay: Body weight / diet-induced obesity in HFHSD-fed mice; format: in vivo, mouse; settings: Figure 5J, 100 mg/kg/day, in g (unit assumed)

In the case of CCCCCC(=O)CC[C@H]1[C@H](O)CC(=O)[C@@H]1C/C=C\CCCC(=O)O [13,14-dihydro-15-keto-PGE2], the “insulin-stimulated glucose uptake, Fig 1J replicates” value ([1]; 13,14dh-15kPGE2 5) is reported as 2.459 and 1.953 and 1.121 and 1.067 and the insulin-stimulated glucose uptake ([1]; differentiated 3T3-L1 adipocytes) is reported as “showed little effect”.
For Cc1[nH]c2nc(C(C)N3CCN(c4ccccc4)CC3)nn2c(=O)c1Cc1ccc(F)cc1 (stereo not shown) [BPRPT245], the “Blood glucose during glucose tolerance test (Figure 5L), Average” value ([2]; time 0) was 153.667, the “Blood glucose during glucose tolerance test (Figure 5L), Average” value ([2]; time 15) was 305 and the “Blood glucose during glucose tolerance test (Figure 5L), Average” value ([2]; time 30) was 285.933. The “Blood glucose during glucose tolerance test (Figure 5L), Average” value ([2]; time 45) was 242.333, the “Blood glucose during glucose tolerance test (Figure 5L), Average” value ([2]; time 60) was 219.733 and the “Blood glucose during glucose tolerance test (Figure 5L), Average” value ([2]; time 90) was 192.133. The “Blood glucose during glucose tolerance test (Figure 5L), Average” value ([2]; time 120) was 185.4, the “Blood glucose during insulin tolerance test (Figure 5M), Average” value ([3]; time 0) was 210.867 and the “Blood glucose during insulin tolerance test (Figure 5M), Average” value ([3]; time 15) was 143.067. The “Blood glucose during insulin tolerance test (Figure 5M), Average” value ([3]; time 30) was 94.067, the “Blood glucose during insulin tolerance test (Figure 5M), Average” value ([3]; time 45) was 78.667 and the “Blood glucose during insulin tolerance test (Figure 5M), Average” value ([3]; time 60) was 69.8. The “Blood glucose during insulin tolerance test (Figure 5M), Average” value ([3]; time 90) was 59.667, the “Blood glucose during insulin tolerance test (Figure 5M), Average” value ([3]; time 120) was 71.467 and the “Blood glucose during insulin tolerance test (Figure 5M), Average” value ([3]; time 180) was 90.933. The “Body weight, Average” value ([4]; week 0) was 30.59, the “Body weight, Average” value ([4]; week 1) was 31.2 and the “Body weight, Average” value ([4]; week 2) was 31.673. The “Body weight, Average” value ([4]; week 3) was 32.167, the “Body weight, Average” value ([4]; week 4) was 32.92 and the “Body weight, Average” value ([4]; week 5) was 32.837. The “Body weight, Average” value ([4]; week 6) was 33.673, the “Body weight, Average” value ([4]; week 7) was 33.323 and the “Body weight, Average” value ([4]; week 8) was 33.923. For the same compound, the “Body weight, Average” value ([4]; week 9) was 34.59, the “Body weight, Average” value ([4]; week 10) was 35.623 and the “Body weight, Average” value ([4]; week 11) was 36.193. The “Body weight, Average” value ([4]; week 12) was 37.113, the “Body weight, Average” value ([4]; week 13) was 36.957 and the “Body weight, Average” value ([4]; week 14) was 38.33. The “Body weight, Average” value ([4]; week 15) was 38.607, the “Body weight, Average” value ([4]; week 16) was 39.303 and the “Body weight, Average” value ([4]; week 17) was 40.533. For the same compound, the “Body weight, Average” value ([4]; week 18) was 40.933, the “Body weight, Average” value ([4]; week 19) was 42.11 and the “Body weight, Average” value ([4]; week 20) was 41.483. The “Body weight, Average” value ([4]; week 21) was 42.933, the “Body weight, Average” value ([4]; week 22) was 43.33 and the “Body weight, Average” value ([4]; week 23) was 44.06. The “Body weight, Average” value ([4]; week 24) was 44.36 and the “Body weight, Average” value ([4]; week 25) was 45.28.
